Experiments:
[1] = biological target: TYK2 (Homo sapiens (Human), UniProt P29597); assay: Tyk2 radioactive kinase assay; assay type: biochemical; conditions: ATP 10 μM
Protocol: (§1) Peptide substrate, [KKSRGDYMTMQIG], (20 μM) is prepared in reaction buffer (20 mM Hepes pH 7.5, 10 mM MgCl2, 1 mM EGTA, 0.02% Brij35, 0.02 mg/mL BSA, 0.1 mM […], 2 mM DTT, 1% DMSO. TYK2 (Invitrogen) kinase is added, followed by compounds in DMSO. ^33PATP is added to initiate the reaction with ATP at 10 μM. Kinase reaction is incubated for 120 min at room temp and reactions are spotted onto P81 ion exchange paper (Whatman #3698-915), and then washed extensively in 0.75% phosphoric acid, prior to reading the radioactivity counts. For JAK2 (Invitrogen) kinase assay the peptide substrate poly[Glu:Tyr] (4:1), 0.2 mg/ml is used, in the reaction carried out the same as for TYK2.

[2] = biological target: JAK2 (Homo sapiens (Human), UniProt O60674); assay: JAK2 radioactive kinase assay; assay type: biochemical; conditions: ATP 10 μM
Protocol: as §1

[3] = test system: Tyk2-pSTAT4 (IL-12 induced pSTAT4); assay: IL-12 induced pSTAT4 in human PBMC; assay type: cell-based; conditions: Homo sapiens, PBMC, 0.5 h, 1.7 ng/mL IL-12, 30 minutes
Protocol: Human PBMC are isolated from buffy coat and are stored frozen for assays as needed. Cells for assay are thawed and resuspended in complete media containing serum, then cells are diluted to 1.67 E6 cells/ml so that 120 ul per well is 200,000 cells. 15 ul of compound or DMSO is added to the well at the desired concentrations and incubated at 1 hr at 37 C. 15 ul of stimulus (final concentration of 1.7 ng/mL IL-12) is added for 30 minutes prior to pSTAT4 and total STAT4 analysis using cell lysates prepared and analyzed by MSD reagents as per manufacturer protocol. The final DMSO concentration of compound in the assay is 0.1%.

Chain of TYK2 (P29597 whole entry): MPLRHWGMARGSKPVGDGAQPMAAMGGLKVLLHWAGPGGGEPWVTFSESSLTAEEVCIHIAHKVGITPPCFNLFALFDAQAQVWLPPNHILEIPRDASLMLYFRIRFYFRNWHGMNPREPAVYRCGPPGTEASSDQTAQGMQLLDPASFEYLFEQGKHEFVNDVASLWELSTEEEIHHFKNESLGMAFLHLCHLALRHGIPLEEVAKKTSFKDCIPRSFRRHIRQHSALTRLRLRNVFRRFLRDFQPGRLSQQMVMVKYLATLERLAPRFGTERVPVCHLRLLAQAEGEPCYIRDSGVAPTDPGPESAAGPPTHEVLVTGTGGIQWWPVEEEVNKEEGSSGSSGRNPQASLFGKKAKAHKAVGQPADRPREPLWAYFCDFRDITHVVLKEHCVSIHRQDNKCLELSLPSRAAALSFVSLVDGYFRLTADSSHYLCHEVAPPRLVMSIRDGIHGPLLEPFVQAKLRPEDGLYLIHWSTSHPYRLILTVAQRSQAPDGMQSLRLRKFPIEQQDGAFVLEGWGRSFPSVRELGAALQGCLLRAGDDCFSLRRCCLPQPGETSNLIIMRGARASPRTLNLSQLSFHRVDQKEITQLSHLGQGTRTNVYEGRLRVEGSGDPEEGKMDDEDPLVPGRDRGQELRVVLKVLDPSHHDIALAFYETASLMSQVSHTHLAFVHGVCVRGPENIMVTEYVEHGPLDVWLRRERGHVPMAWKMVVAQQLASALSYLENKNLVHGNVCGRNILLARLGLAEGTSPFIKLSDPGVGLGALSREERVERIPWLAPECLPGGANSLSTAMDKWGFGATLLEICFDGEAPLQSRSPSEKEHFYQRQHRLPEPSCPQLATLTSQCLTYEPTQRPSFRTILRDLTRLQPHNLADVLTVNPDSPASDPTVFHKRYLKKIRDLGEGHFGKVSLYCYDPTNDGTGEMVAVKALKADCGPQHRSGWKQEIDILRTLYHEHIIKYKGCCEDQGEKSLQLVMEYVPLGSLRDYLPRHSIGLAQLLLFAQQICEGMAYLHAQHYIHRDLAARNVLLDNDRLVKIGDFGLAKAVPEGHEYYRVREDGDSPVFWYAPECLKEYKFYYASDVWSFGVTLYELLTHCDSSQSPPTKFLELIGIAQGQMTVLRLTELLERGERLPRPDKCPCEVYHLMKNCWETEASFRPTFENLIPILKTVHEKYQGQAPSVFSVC
Chain of JAK2 (O60674 whole entry): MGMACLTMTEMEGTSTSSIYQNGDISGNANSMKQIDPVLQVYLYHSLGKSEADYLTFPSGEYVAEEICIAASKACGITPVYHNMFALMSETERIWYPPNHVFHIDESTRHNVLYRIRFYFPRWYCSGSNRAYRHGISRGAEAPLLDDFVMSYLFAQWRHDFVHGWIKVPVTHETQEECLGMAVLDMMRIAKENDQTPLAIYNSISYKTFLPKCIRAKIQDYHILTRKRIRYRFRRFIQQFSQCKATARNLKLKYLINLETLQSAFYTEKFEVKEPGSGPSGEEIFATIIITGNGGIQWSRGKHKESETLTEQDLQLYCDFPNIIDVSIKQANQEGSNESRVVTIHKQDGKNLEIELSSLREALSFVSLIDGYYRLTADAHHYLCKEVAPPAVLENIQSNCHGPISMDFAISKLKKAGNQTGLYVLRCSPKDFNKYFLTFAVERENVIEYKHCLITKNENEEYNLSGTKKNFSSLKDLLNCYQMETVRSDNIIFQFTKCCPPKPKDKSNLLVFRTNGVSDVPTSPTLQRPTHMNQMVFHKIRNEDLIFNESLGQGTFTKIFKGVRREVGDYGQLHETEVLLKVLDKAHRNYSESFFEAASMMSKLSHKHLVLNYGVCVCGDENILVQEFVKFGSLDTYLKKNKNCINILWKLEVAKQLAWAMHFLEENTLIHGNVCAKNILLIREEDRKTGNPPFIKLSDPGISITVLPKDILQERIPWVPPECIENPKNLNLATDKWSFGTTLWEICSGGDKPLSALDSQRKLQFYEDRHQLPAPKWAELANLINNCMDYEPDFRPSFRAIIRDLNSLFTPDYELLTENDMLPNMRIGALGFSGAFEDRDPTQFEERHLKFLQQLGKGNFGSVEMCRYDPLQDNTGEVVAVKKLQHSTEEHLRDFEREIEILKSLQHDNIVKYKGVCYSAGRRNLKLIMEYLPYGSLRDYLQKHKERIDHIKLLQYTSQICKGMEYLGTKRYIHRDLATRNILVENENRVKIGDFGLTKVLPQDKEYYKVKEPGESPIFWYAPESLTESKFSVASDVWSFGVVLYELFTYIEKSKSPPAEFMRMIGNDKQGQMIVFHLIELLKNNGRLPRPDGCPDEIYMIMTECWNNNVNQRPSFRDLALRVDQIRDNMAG

| SMILES | Ki [1] [nM] | Ki [2] [nM] | EC50 [3] [nM] |
| --- | --- | --- | --- |
| N#Cc1cccc(F)c1-c1cc(-n2ccc(N3CCNC(=O)C3)n2)c2c(n1)CNC2=O [I-175, 3-fluoro-2-(5-oxo-4-(3-(3-oxopiperazin-1-yl)-1H-pyrazol-1-yl)-6,7-dihydro-5H-pyrrolo[3,4-b]pyridin-2-yl)benzonitrile] | 0.1 to 10 | 100 to 1000 | 100 to 2000 |
| N#Cc1cccc(F)c1-c1cc(-n2ccc(N3CCOC[C@H](O)C3)n2)c2c(n1)CNC2=O [I-132, (R)-3-fluoro-2-(4-(3-(6-hydroxy-1,4-oxazepan-4-yl)-1H-pyrazol-1-yl)-5-oxo-6,7-dihydro-5H-pyrrolo[3,4-b]pyridin-2-yl)benzonitrile] | 0.1 to 10 | 10 to 100 | 100 to 2000 |
| CO[C@@H]1CN(c2ccn(-c3cc(-c4c(F)cccc4C#N)nc4c3C(=O)NC4)n2)C[C@@H]1O [I-154, 3-fluoro-2-(4-(3-((3S,4R)-3-hydroxy-4-methoxypyrrolidin-1-yl)-1H-pyrazol-1-yl)-5-oxo-6,7-dihydro-5H-pyrrolo[3,4-b]pyridin-2-yl)benzonitrile] | 0.1 to 10 |  | 30 to 100 |
| N#Cc1cccc(F)c1-c1cc(-n2ccc(N3CCC[C@@H](N)C3)n2)c2c(n1)CNC2=O [I-73, (R)-2-(4-(3-(3-aminopiperidin-1-yl)-1H-pyrazol-1-yl)-5-oxo-6,7-dihydro-5H-pyrrolo[3,4-b]pyridin-2-yl)-3-fluorobenzonitrile] | 0.1 to 10 | 0.1 to 10 | 100 to 2000 |
| CS(=O)(=O)N[C@@H]1CCN(c2ccn(-c3cc(-c4c(F)cccc4C#N)nc4c3C(=O)NC4)n2)C1 [I-134, (R)-N-(1-(1-(2-(2-cyano-6-fluorophenyl)-5-oxo-6,7-dihydro-5H-pyrrolo[3,4-b]pyridin-4-yl)-1H-pyrazol-3-yl)pyrrolidin-3-yl)methanesulfonamide] | 0.1 to 10 | 0.1 to 10 | 100 to 2000 |
| N#Cc1cccc(F)c1-c1cc(-n2ccc(N3CCCNC(=O)C3)n2)c2c(n1)CNC2=O [I-140, 3-fluoro-2-(5-oxo-4-(3-(3-oxo-1,4-diazepan-1-yl)-1H-pyrazol-1-yl)-6,7-dihydro-5H-pyrrolo[3,4-b]pyridin-2-yl)benzonitrile] | 0.1 to 10 | 0.1 to 10 | 100 to 2000 |
| N#Cc1cccc(F)c1-c1cc(-n2ccc(N3CCCC(CO)C3)n2)c2c(n1)CNC2=O (stereo not shown) [I-86, 3-fluoro-2-(4-(3-(3-(hydroxymethyl)piperidin-1-yl)-1H-pyrazol-1-yl)-5-oxo-6,7-dihydro-5H-pyrrolo[3,4-b]pyridin-2-yl)benzonitrile] | 0.1 to 10 | 10 to 100 | 100 to 2000 |
| N#Cc1cccc(F)c1-c1cc(-n2ccc(N3CC[C@]4(C3)OC[C@@H](O)CO4)n2)c2c(n1)CNC2=O [I-222, 3-fluoro-2-(4-(3-((5s,8s)-8-hydroxy-6,10-dioxa-2-azaspiro[4.5]decan-2-yl)-1H-pyrazol-1-yl)-5-oxo-6,7-dihydro-5H-pyrrolo[3,4-b]pyridin-2-yl)benzonitrile] | 0.1 to 10 | 10 to 100 | 100 to 2000 |
| N#Cc1cccc(F)c1-c1cc(-n2ccc(N3CCC[C@@H](C(=O)N4CCCC4)C3)n2)c2c(n1)CNC2=O [I-167, (R)-3-fluoro-2-(5-oxo-4-(3-(3-(pyrrolidine-1-carbonyl)piperidin-1-yl)-1H-pyrazol-1-yl)-6,7-dihydro-5H-pyrrolo[3,4-b]pyridin-2-yl)benzonitrile] | 0.1 to 10 | 0.1 to 10 | 100 to 2000 |
| C[C@@]1(O)CN(c2ccn(-c3cc(-c4c(F)cccc4C#N)nc4c3C(=O)NC4)n2)CC[C@H]1O [I-182, 2-(4-(3-((3R,4R)-3,4-dihydroxy-3-methylpiperidin-1-yl)-1H-pyrazol-1-yl)-5-oxo-6,7-dihydro-5H-pyrrolo[3,4-b]pyridin-2-yl)-3-fluorobenzonitrile] | 0.1 to 10 | 0.1 to 10 | 30 to 100 |
| CC1(C)C(O)CCN1c1ccn(-c2cc(-c3c(F)cccc3C#N)nc3c2C(=O)NC3)n1 (stereo not shown) [I-187, 3-fluoro-2-(4-(3-(3-hydroxy-2,2-dimethylpyrrolidin-1-yl)-1H-pyrazol-1-yl)-5-oxo-6,7-dihydro-5H-pyrrolo[3,4-b]pyridin-2-yl)benzonitrile] | 0.009 to 0.1 | 0.1 to 10 | 100 to 2000 |
| N#Cc1cccc(F)c1-c1cc(-n2ccc(N3C[C@@H]4OCCO[C@@H]4C3)n2)c2c(n1)CNC2=O [I-169, 3-fluoro-2-(4-(3-((4aR,7aS)-hexahydro-6H-[1,4]dioxino[2,3-c]pyrrol-6-yl)-1H-pyrazol-1-yl)-5-oxo-6,7-dihydro-5H-pyrrolo[3,4-b]pyridin-2-yl)benzonitrile] | 0.1 to 10 | 0.1 to 10 | 30 to 100 |
| N#Cc1cccc(F)c1-c1cc(-n2ccc(N3CCC4(CCNC4=O)C3)n2)c2c(n1)CNC2=O (stereo not shown) [I-146, 3-fluoro-2-(5-oxo-4-(3-(6-oxo-2,7-diazaspiro[4.4]nonan-2-yl)-1H-pyrazol-1-yl)-6,7-dihydro-5H-pyrrolo[3,4-b]pyridin-2-yl)benzonitrile] | 0.1 to 10 | 10 to 100 |  |
| N#Cc1cccc(F)c1-c1cc(-n2ccc(N3CCC(C#N)C3)n2)c2c(n1)CNC2=O (stereo not shown) [I-116, 1-(1-(2-(2-cyano-6-fluorophenyl)-5-oxo-6,7-dihydro-5H-pyrrolo[3,4-b]pyridin-4-yl)-1H-pyrazol-3-yl)pyrrolidine-3-carbonitrile] | 0.1 to 10 | 0.1 to 10 |  |
| N#Cc1cccc(F)c1-c1cc(-n2ccc(N3CCOCC3=O)n2)c2c(n1)CNC2=O [I-138, 3-fluoro-2-(5-oxo-4-(3-(3-oxomorpholino)-1H-pyrazol-1-yl)-6,7-dihydro-5H-pyrrolo[3,4-b]pyridin-2-yl)benzonitrile] | 0.1 to 10 | 100 to 1000 |  |
| C[C@@H]1CC(O)C[C@@H](C)N1c1ccn(-c2cc(-c3c(F)cccc3C#N)nc3c2C(=O)NC3)n1 (stereo partly drawn) [I-106, 3-fluoro-2-(4-(3-((2R,6R)-4-hydroxy-2,6-dimethylpiperidin-1-yl)-1H-pyrazol-1-yl)-5-oxo-6,7-dihydro-5H-pyrrolo[3,4-b]pyridin-2-yl)benzonitrile] | 10 to 100 | 100 to 1000 |  |
| O=C1NCc2nc(-c3c(F)cccc3F)cc(-n3ccc(N4CCOCC4)n3)c21 [I-1, 2-(2,6-difluorophenyl)-4-(3-morpholino-1H-pyrazol-1-yl)-6,7-dihydro-5H-pyrrolo[3,4-b]pyridin-5-one] | 0.1 to 10 | 100 to 1000 |  |
| CO[C@H]1CN(c2ccn(-c3cc(-c4c(F)cccc4C#N)nc4c3C(=O)NC4)n2)C[C@H]1O [I-143, 3-fluoro-2-(4-(3-((3R,4S)-3-hydroxy-4-methoxypyrrolidin-1-yl)-1H-pyrazol-1-yl)-5-oxo-6,7-dihydro-5H-pyrrolo[3,4-b]pyridin-2-yl)benzonitrile] | 0.1 to 10 | 0.1 to 10 |  |
| N#Cc1cccc(F)c1-c1cc(-n2ccc(CC(=O)O)n2)c2c(n1)CNC2=O [I-102, 2-(1-(2-(2-cyano-6-fluorophenyl)-5-oxo-6,7-dihydro-5H-pyrrolo[3,4-b]pyridin-4-yl)-1H-pyrazol-3-yl)acetic acid] | 10 to 100 | ≥ 1000 |  |
| CS(=O)(=O)c1ccn(-c2cc(-c3c(F)cccc3C#N)nc3c2C(=O)NC3)n1 [I-81, 3-fluoro-2-(4-(3-(methylsulfonyl)-1H-pyrazol-1-yl)-5-oxo-6,7-dihydro-5H-pyrrolo[3,4-b]pyridin-2-yl)benzonitrile] | 10 to 100 | ≥ 1000 |  |
| CN1CC(S(=O)(=O)N2CCN(c3ccn(-c4cc(-c5c(F)cccc5C#N)nc5c4C(=O)NC5)n3)CC2)C1 [I-99, 3-fluoro-2-(4-(3-(4-((1-methylazetidin-3-yl)sulfonyl)piperazin-1-yl)-1H-pyrazol-1-yl)-5-oxo-6,7-dihydro-5H-pyrrolo[3,4-b]pyridin-2-yl)benzonitrile] | ≥ 1000 | ≥ 1000 |  |
| CN(C)[C@H]1CC[C@H](Nc2ccn(-c3cc(-c4c(F)cccc4C#N)nc4c3C(=O)NC4)n2)CC1 [I-67, 2-(4-(3-(((1r,4r)-4-(dimethylamino)cyclohexyl)amino)-1H-pyrazol-1-yl)-5-oxo-6,7-dihydro-5H-pyrrolo[3,4-b]pyridin-2-yl)-3-fluorobenzonitrile] | 0.1 to 10 | 10 to 100 |  |
| CCNC(=O)Cc1ccn(-c2cc(-c3c(F)cccc3C#N)nc3c2C(=O)NC3)n1 [I-7, 2-(1-(2-(2-cyano-6-fluorophenyl)-5-oxo-6,7-dihydro-5H-pyrro-lo[3,4-b]pyridin-4-yl)-1H-pyrazol-3-yl)-N-ethylacetamide] | 0.1 to 10 | 100 to 1000 |  |
| N#Cc1cccc(F)c1-c1cc(-n2ccc(NCCO)n2)c2c(n1)CNC2=O [I-64, 3-fluoro-2-(4-(3-((2-hydroxyethyl)amino)-1H-pyrazol-1-yl)-5-oxo-6,7-dihydro-5H-pyrrolo[3,4-b]pyridin-2-yl)benzonitrile] | 0.1 to 10 | 10 to 100 |  |
| N#Cc1cccc(F)c1-c1cc(-n2ccc(CCO)n2)c2c(n1)CNC2=O [I-94, 3-fluoro-2-(4-(3-(2-hydroxyethyl)-1H-pyrazol-1-yl)-5-oxo-6,7-dihydro-5H-pyrrolo[3,4-b]pyridin-2-yl)benzonitrile] | 10 to 100 | 100 to 1000 |  |
